# Assay results taken from ChEMBL document CHEMBL5214890 (Eur J Med Chem, 2021).
# Calls of active or inactive are those of the source. The calls are words filed in the database; no cut-off is given here. Where a SMILES comes first, the peptide text is derived from it. [ ]: non-standard residue; d: D form. ξ: configuration not given here. Thr(3ξ) = CC(O)[C@H](N)C(=O)O; Aib = CC(C)(N)C(=O)O
# Legend:
# [1] = target: T1, Glucagon-like peptide 1 receptor (Homo sapiens, UniProt P43220); test: Agonist activity at human GLP-1R expressed in HEK293 cells incubated for 30 mins and assessed as increase in cAMP accumulation measured by HTRF assay; format: functional, cell-based
# [2] = target: T1, Glucagon-like peptide 1 receptor; test: Agonist activity at human GLP-1R expressed in HEK293 cells incubated for 30 mins and assessed as increase in cAMP accumulation measured by HTRF assay relative to control; format: functional, cell-based; parameters: concentration or dose not given beside the values
# Glucagon receptor = Glucagon receptor (Homo sapiens, UniProt P47871); test: Agonist activity at human GCGR expressed in HEK293 cells incubated for 30 mins and assessed as increase in cAMP accumulation measured by HTRF assay; format: functional, cell-based
# Mus musculus [3] = test: Antidiabetic activity in male […] assessed as reduction in body weight at 30 nmol/kg, sc administered twice daily for 3 weeks; format: functional; parameters: scale not given: the % may be the effect or the level left
# Mus musculus [4] = test: Antidiabetic activity in male […] assessed as reduction in fasted glucose level at 30 nmol/kg, sc administered twice daily for 3 weeks; format: functional, organism-based
# Mus musculus [5] = test: Antidiabetic activity in male […] assessed as increase in plasma insulin level at 30 nmol/kg, sc administered twice daily for 3 weeks; format: functional, organism-based
# Mus musculus [6] = test: Antidiabetic activity in male […] assessed as increase in plasma FGF21 level at 30 nmol/kg, sc administered twice daily for 3 weeks; format: functional, organism-based
# Mus musculus [7] = test: Antidiabetic activity in male […] assessed as decrease in serum LDL-C level at 30 nmol/kg, sc administered twice daily for 3 weeks; format: functional, organism-based
# Mus musculus [8] = test: Antidiabetic activity in male […] assessed as increase in serum HDL/LDL ratio at 30 nmol/kg, sc administered twice daily for 3 weeks; format: functional, organism-based
# [9] = Toxicity in male […] assessed as normalization of hepatic lipid content at 30 nmol/kg, sc administered twice daily for 3 weeks; format: organism-based; conditions: in vivo, 504 h
# Chain of Glucagon receptor (P47871 whole entry): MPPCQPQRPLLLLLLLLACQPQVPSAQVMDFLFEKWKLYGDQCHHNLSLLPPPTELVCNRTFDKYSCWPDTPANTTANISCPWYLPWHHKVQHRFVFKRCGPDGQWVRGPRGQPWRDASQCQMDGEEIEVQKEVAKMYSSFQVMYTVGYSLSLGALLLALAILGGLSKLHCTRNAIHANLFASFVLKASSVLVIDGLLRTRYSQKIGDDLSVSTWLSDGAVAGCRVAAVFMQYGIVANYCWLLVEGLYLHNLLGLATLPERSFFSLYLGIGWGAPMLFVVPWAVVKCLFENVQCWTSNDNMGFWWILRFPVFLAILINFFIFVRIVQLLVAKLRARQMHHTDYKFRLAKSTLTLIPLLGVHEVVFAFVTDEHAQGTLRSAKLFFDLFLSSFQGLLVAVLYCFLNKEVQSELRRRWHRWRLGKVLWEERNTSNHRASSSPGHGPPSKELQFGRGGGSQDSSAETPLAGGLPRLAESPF
# T1 sequence (P43220 whole entry): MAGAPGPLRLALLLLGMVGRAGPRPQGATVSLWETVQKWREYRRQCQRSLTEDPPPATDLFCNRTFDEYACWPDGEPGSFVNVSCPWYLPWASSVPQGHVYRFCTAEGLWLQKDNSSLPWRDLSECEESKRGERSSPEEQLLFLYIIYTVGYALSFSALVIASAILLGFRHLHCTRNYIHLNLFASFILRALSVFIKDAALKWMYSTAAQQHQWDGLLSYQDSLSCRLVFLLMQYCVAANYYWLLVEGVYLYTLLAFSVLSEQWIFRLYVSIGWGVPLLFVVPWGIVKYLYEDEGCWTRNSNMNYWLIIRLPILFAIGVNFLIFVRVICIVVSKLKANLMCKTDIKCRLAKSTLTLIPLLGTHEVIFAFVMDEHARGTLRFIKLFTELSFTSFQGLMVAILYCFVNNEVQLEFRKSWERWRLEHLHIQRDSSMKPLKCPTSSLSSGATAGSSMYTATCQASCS
EC50 [1] [nM],Activity [2] [%],EC50 (Glucagon receptor) [nM],Molecule,further results
0.62,6.6,0.93,H-HSQGTYTNDVTQYLDSRRAQQFIEWLMNTKRNRNNIA-NH2,–
0.14,29.3,1.3,H-HSQGTYTNDVSKYLDSRRAQDFIEWLIKGK-NH2,–
0.041,–,> 1000,CC[C@H](C)[C@H](NC(=O)[C@H](CC(C)C)NC(=O)[C@H](Cc1c[nH]c2ccccc12)NC(=O)[C@H](CCC(=O)O)NC(=O)[C@@H](NC(=O)[C@H](Cc1ccccc1)NC(=O)[C@H](CCC(=O)O)NC(=O)[C@H](CCCCN)NC(=O)[C@H](C)NC(=O)[C@H](C)NC(=O)[C@H](CCC(=O)O)NC(=O)[C@H](CCC(=O)O)NC(=O)[C@H](CCC(=O)O)NC(=O)[C@H](CC(C)C)NC(=O)[C@H](Cc1ccc(O)cc1)NC(=O)[C@H](CCC(=O)O)NC(=O)[C@@H](NC(=O)[C@@H](NC(=O)[C@H](CC(=O)O)NC(=O)[C@H](CC(N)=O)NC(=O)[C@@H](NC(=O)[C@H](Cc1ccc(O)cc1)NC(=O)[C@@H](NC(=O)CNC(=O)[C@H](CCC(=O)O)NC(=O)C(C)(C)NC(=O)[C@@H](N)Cc1c[nH]cn1)[C@@H](C)O)[C@@H](C)O)C(C)C)[C@@H](C)O)[C@@H](C)CC)C(=O)N[C@@H](CCCCN)C(=O)NCC(=O)N[C@@H](CCCCN)C(N)=O (H-H[Aib]EGTYTNDVTEYLEEEAAKEFIEWLIKGK-NH2),Activity ([2]; filed as agonist): 100%
0.68,6,0.41,CC[C@H](C)[C@H](NC(=O)[C@H](Cc1ccccc1)NC(=O)[C@H](CC(=O)O)NC(=O)[C@H](CCC(N)=O)NC(=O)[C@H](C)NC(=O)[C@H](CCCNC(=N)N)NC(=O)[C@H](CCCNC(=N)N)NC(=O)[C@H](CO)NC(=O)[C@H](CC(=O)O)NC(=O)[C@H](CC(C)C)NC(=O)[C@H](Cc1ccc(O)cc1)NC(=O)[C@H](CCCCN)NC(=O)[C@H](CO)NC(=O)[C@@H](NC(=O)[C@H](CC(=O)O)NC(=O)[C@H](CC(N)=O)NC(=O)[C@@H](NC(=O)[C@H](Cc1ccc(O)cc1)NC(=O)[C@@H](NC(=O)CNC(=O)[C@H](CCC(N)=O)NC(=O)[C@H](CO)NC(=O)[C@@H](N)Cc1c[nH]cn1)[C@@H](C)O)[C@@H](C)O)C(C)C)C(=O)N[C@@H](CCC(=O)O)C(=O)N[C@@H](Cc1c[nH]c2ccccc12)C(=O)N[C@@H](CC(C)C)C(=O)N[C@@H](CCSC)C(=O)N[C@@H](CC(N)=O)C(=O)N[C@H](C(N)=O)C(C)O (some centres undefined) (H-HSQGTYTNDVSKYLDSRRAQDFIEWLMN[Thr(3ξ)]-NH2),–
0.56,7.3,1.9,H-HSQGTYTNDVSKYLDSRRAQDFIEWLIKG-NH2,–
0.57,7.2,0.42,H-HSQGTYTNDVSKYLDSRRAQQFIEWLMNTKRNRNNIA-NH2,–
0.12,34.2,2.6,H-HSQGTYTNDVTEYLDSRRAQDFIEWLIKGK-NH2,–
0.73,5.6,0.43,CC[C@H](C)[C@H](NC(=O)[C@H](Cc1ccccc1)NC(=O)[C@H](CC(=O)O)NC(=O)[C@H](CCC(N)=O)NC(=O)[C@H](C)NC(=O)[C@H](CCCNC(=N)N)NC(=O)[C@H](CCCNC(=N)N)NC(=O)[C@H](CO)NC(=O)[C@H](CC(=O)O)NC(=O)[C@H](CC(C)C)NC(=O)[C@H](Cc1ccc(O)cc1)NC(=O)[C@H](CCC(N)=O)NC(=O)[C@@H](NC(=O)[C@@H](NC(=O)[C@H](CC(=O)O)NC(=O)[C@H](CC(N)=O)NC(=O)[C@@H](NC(=O)[C@H](Cc1ccc(O)cc1)NC(=O)[C@@H](NC(=O)CNC(=O)[C@H](CCC(N)=O)NC(=O)[C@H](CO)NC(=O)[C@@H](N)Cc1c[nH]cn1)[C@@H](C)O)[C@@H](C)O)C(C)C)[C@@H](C)O)C(=O)N[C@@H](CCC(=O)O)C(=O)N[C@@H](Cc1c[nH]c2ccccc12)C(=O)N[C@@H](CC(C)C)C(=O)N[C@@H](CCSC)C(=O)N[C@@H](CC(N)=O)C(=O)N[C@H](C(N)=O)C(C)O (some centres undefined) (H-HSQGTYTNDVTQYLDSRRAQDFIEWLMN[Thr(3ξ)]-NH2),–

# More lines, now with the values behind:
Molecule,EC50 [1] [nM],Activity [2] [%],EC50 (Glucagon receptor) [nM],further results
H-HSQGTYTNDVSKYLDSRRAQDFIEWLIKGKPSSGAPPPS-NH2,0.24,17.1,0.85,–
H-HSQGTYTNDVTEYLDSRRAQDFIEWLIKGKPSSGAPPPS-NH2,0.45,9.1,1.3,–
H-HSQGTYTNDVSKYLDSRRAQDFIEWLIKGKRNRNNIA-NH2,0.078,–,0.28,Activity ([2]; filed as agonist): 52.6%
CCCCCCCCCCCCCCCC(=O)N[C@H](CCC(=O)NCCCC[C@H](NC(=O)[C@H](CO)NC(=O)[C@@H](NC(=O)[C@H](CC(=O)O)NC(=O)[C@H](CC(N)=O)NC(=O)[C@@H](NC(=O)[C@H](Cc1ccc(O)cc1)NC(=O)[C@@H](NC(=O)CNC(=O)[C@H](CCC(N)=O)NC(=O)[C@@H](CO)NC(=O)[C@@H](N)Cc1c[nH]cn1)[C@@H](C)O)[C@@H](C)O)C(C)C)C(=O)N[C@@H](Cc1ccc(O)cc1)C(=O)N[C@@H](CC(C)C)C(=O)N[C@@H](CC(=O)O)C(=O)N[C@@H](CO)C(=O)N[C@@H](CCCNC(=N)N)C(=O)N[C@@H](CCCNC(=N)N)C(=O)N[C@@H](C)C(=O)N[C@@H](CCC(N)=O)C(=O)N[C@@H](CC(=O)O)C(=O)N[C@@H](Cc1ccccc1)C(=O)N[C@H](C(=O)N[C@@H](CCC(=O)O)C(=O)N[C@@H](Cc1c[nH]c2ccccc12)C(=O)N[C@@H](CC(C)C)C(=O)N[C@@H](CCCCN)C(=O)N[C@@H](CC(N)=O)C(=O)NCC(=O)NCC(=O)N1CCC[C@H]1C(=O)N[C@@H](CO)C(=O)N[C@@H](CO)C(=O)NCC(=O)N[C@@H](C)C(=O)N1CCC[C@H]1C(=O)N1CCC[C@H]1C(=O)N1CCC[C@H]1C(=O)N[C@@H](CO)C(N)=O)[C@@H](C)CC)C(=O)O,–,–,–,EC50 ([1]; hek293): 0.051 nM; Activity ([2]; filed as agonist): 80.4%
CCCCCCCCCCCCCCCC(=O)N[C@@H](CCC(=O)NCCCC[C@H](NC(=O)[C@H](CO)NC(=O)[C@@H]1CCCN1C(=O)[C@@H]1CCCN1C(=O)[C@@H]1CCCN1C(=O)[C@H](C)NC(=O)CNC(=O)[C@H](CO)NC(=O)[C@H](CO)NC(=O)[C@@H]1CCCN1C(=O)CNC(=O)CNC(=O)[C@H](CC(N)=O)NC(=O)[C@H](CCCCN)NC(=O)[C@H](CC(C)C)NC(=O)[C@H](Cc1c[nH]c2ccccc12)NC(=O)[C@H](CCC(=O)O)NC(=O)[C@@H](NC(=O)[C@H](Cc1ccccc1)NC(=O)[C@H](CC(=O)O)NC(=O)[C@H](CCC(N)=O)NC(=O)[C@H](C)NC(=O)[C@H](CCCNC(=N)N)NC(=O)[C@H](CCCNC(=N)N)NC(=O)[C@H](CO)NC(=O)[C@H](CC(=O)O)NC(=O)[C@H](CC(C)C)NC(=O)[C@H](Cc1ccc(O)cc1)NC(=O)[C@H](CCCCN)NC(=O)[C@H](CO)NC(=O)[C@@H](NC(=O)[C@H](CC(=O)O)NC(=O)[C@H](CC(N)=O)NC(=O)[C@@H](NC(=O)[C@H](Cc1ccc(O)cc1)NC(=O)[C@@H](NC(=O)CNC(=O)[C@H](CCC(N)=O)NC(=O)[C@@H](CO)NC(=O)[C@@H](N)Cc1c[nH]cn1)[C@@H](C)O)[C@@H](C)O)C(C)C)[C@@H](C)CC)C(N)=O)C(=O)O,0.086,–,0.28,Activity ([2]; filed as agonist): 47.7%
H-HSQGTYTNDVTEYLDSRRAQEFIEWLIKGK-NH2,0.16,25.6,2.7,–
H-HSQGTYTNDVTEYLDSRRAQDFIEWLKNGGPSSGAPPPS-NH2,0.22,18.6,39,–
CCCCCCCCCCCCCCCC(=O)N[C@@H](CCC(=O)N[C@@H](CCC(=O)NCCCC[C@H](NC(=O)[C@H](CC(=O)O)NC(=O)[C@H](CO)NC(=O)[C@@H](NC(=O)[C@H](Cc1ccccc1)NC(=O)[C@@H](NC(=O)CNC(=O)[C@H](CCC(N)=O)NC(=O)[C@H](CO)NC(=O)[C@@H](N)Cc1cnc[nH]1)[C@@H](C)O)[C@@H](C)O)C(=O)N[C@@H](CO)C(=O)N[C@@H](CCC(=O)O)C(=O)N[C@@H](Cc1ccc(O)cc1)C(=O)N[C@@H](CC(C)C)C(=O)N[C@@H](CC(=O)O)C(=O)N[C@@H](CO)C(=O)N[C@@H](CCC(=O)O)C(=O)N[C@@H](CCCNC(=N)N)C(=O)N[C@@H](C)C(=O)N[C@@H](CCCNC(=N)N)C(=O)N[C@@H](CC(=O)O)C(=O)N[C@@H](Cc1ccccc1)C(=O)N[C@H](C(=O)N[C@@H](C)C(=O)N[C@@H](Cc1c[nH]c2ccccc12)C(=O)N[C@@H](CC(C)C)C(=O)N[C@@H](CCC(=O)O)C(=O)N[C@@H](C)C(=O)NCC(=O)NCC(=O)O)C(C)C)C(=O)O)C(=O)O,–,–,–,Activity (Mus musculus [3]): 26.4%; Activity (Mus musculus [4]): Active; Activity (Mus musculus [5]): Active; Activity (Mus musculus [6]): Active; Activity (Mus musculus [7]): Active; Activity (Mus musculus [8]): Active; Activity [9]: Non-Toxic
H-HSQGTYTNDVSKYLDSRRAQDFIEWLKNGGPSSGAPPPS-NH2,0.053,–,0.15,Activity ([2]; filed as agonist): 77.4%
